Test results reported in PubChem BioAssay (NCI).
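Method: 48-hour compound exposure of cells in 96-well plates, five concentrations, linear interpolation of endpoints. TGI: concentration producing complete growth inhibition.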

Tests used:
Assay in all cases: NCI-60 cell line screen, 48 h
SNB-19 CNS = tested on: SNB-19 CNS
SN12C renal = tested on: SN12C renal
DMS 114 small cell lung = tested on: DMS 114 small cell lung
A549 NSCLC = tested on: A549 NSCLC
CAKI-1 renal = tested on: CAKI-1 renal
SW-620 colon = tested on: SW-620 colon
SK-MEL-5 melanoma = tested on: SK-MEL-5 melanoma
SK-OV-3 ovarian = tested on: SK-OV-3 ovarian
HL-60(TB) leukemia = tested on: HL-60(TB) leukemia
NCI-H460 lung = tested on: NCI-H460 lung
NCI-H23 lung = tested on: NCI-H23 lung
NCI-H522 lung = tested on: NCI-H522 lung
UACC-257 melanoma = tested on: UACC-257 melanoma
CCRF-CEM leukemia = tested on: CCRF-CEM leukemia
OVCAR-3 ovarian = tested on: OVCAR-3 ovarian
RXF 393 renal = tested on: RXF 393 renal
OVCAR-4 ovarian = tested on: OVCAR-4 ovarian
KM12 colon = tested on: KM12 colon
HCC-2998 colon = tested on: HCC-2998 colon
OVCAR-5 ovarian = tested on: OVCAR-5 ovarian
SF-268 CNS = tested on: SF-268 CNS
MALME-3M melanoma = tested on: MALME-3M melanoma
NCI-H226 lung = tested on: NCI-H226 lung
SF-539 CNS = tested on: SF-539 CNS
LOX IMVI melanoma = tested on: LOX IMVI melanoma
MOLT-4 leukemia = tested on: MOLT-4 leukemia
786-0 renal = tested on: 786-0 renal
M19-MEL melanoma = tested on: M19-MEL melanoma
DLD-1 colon = tested on: DLD-1 colon
TK-10 renal = tested on: TK-10 renal
RPMI-8226 leukemia = tested on: RPMI-8226 leukemia
LXFL 529 NSCLC = tested on: LXFL 529 NSCLC
XF 498 CNS = tested on: XF 498 CNS
OVCAR-8 ovarian = tested on: OVCAR-8 ovarian
SR leukemia = tested on: SR leukemia
COLO 205 colon = tested on: COLO 205 colon
M14 melanoma = tested on: M14 melanoma
EKVX NSCLC = tested on: EKVX NSCLC
SNB-78 CNS = tested on: SNB-78 CNS
UACC-62 melanoma = tested on: UACC-62 melanoma
U251 CNS = tested on: U251 CNS
ACHN renal = tested on: ACHN renal
K-562 leukemia = tested on: K-562 leukemia
DMS 273 small cell lung = tested on: DMS 273 small cell lung
HOP-62 NSCLC = tested on: HOP-62 NSCLC
UO-31 renal = tested on: UO-31 renal
IGROV1 ovarian = tested on: IGROV1 ovarian
KM20L2 colon = tested on: KM20L2 colon
HCT-116 colon = tested on: HCT-116 colon
SF-295 CNS = tested on: SF-295 CNS
SK-MEL-28 melanoma = tested on: SK-MEL-28 melanoma
HCT-15 colon = tested on: HCT-15 colon
A498 renal = tested on: A498 renal
SK-MEL-2 melanoma = tested on: SK-MEL-2 melanoma
HOP-92 NSCLC = tested on: HOP-92 NSCLC
SNB-75 CNS = tested on: SNB-75 CNS
HOP-18 NSCLC = tested on: HOP-18 NSCLC

For `COC(=O)C1CCC2(C)[C@H](CCC3O[C@]32C)[C@@]1(C)CC(=O)c1ccoc1` (stereo partly specified), the TGI (SNB-19 CNS) was > 100 µM, the TGI (SN12C renal) was > 100 µM and the TGI (DMS 114 small cell lung) was > 100 µM. For the same compound, the TGI (A549 NSCLC) was > 100 µM, the TGI (CAKI-1 renal) was > 100 µM and the TGI (SW-620 colon) was > 100 µM. The TGI (SK-MEL-5 melanoma) was > 100 µM, the TGI (SK-OV-3 ovarian) was > 100 µM and the TGI (HL-60(TB) leukemia) was > 100 µM. The TGI (NCI-H460 lung) was > 100 µM, the TGI (NCI-H23 lung) was > 100 µM and the TGI (NCI-H522 lung) was > 100 µM. The TGI (UACC-257 melanoma) was > 100 µM, the TGI (CCRF-CEM leukemia) was > 100 µM and the TGI (OVCAR-3 ovarian) was > 100 µM. For the same compound, the TGI (RXF 393 renal) was > 100 µM, the TGI (OVCAR-4 ovarian) was > 100 µM and the TGI (KM12 colon) was > 100 µM. For the same compound, the TGI (HCC-2998 colon) was > 100 µM, the TGI (OVCAR-5 ovarian) was > 100 µM and the TGI (SF-268 CNS) was > 100 µM. The TGI (MALME-3M melanoma) was > 100 µM, the TGI (NCI-H226 lung) was > 100 µM and the TGI (SF-539 CNS) was > 100 µM. The TGI (LOX IMVI melanoma) was > 100 µM, the TGI (MOLT-4 leukemia) was > 100 µM and the TGI (786-0 renal) was > 100 µM. The TGI (M19-MEL melanoma) was > 100 µM, the TGI (DLD-1 colon) was > 100 µM and the TGI (TK-10 renal) was > 100 µM. The TGI (RPMI-8226 leukemia) was > 100 µM, the TGI (LXFL 529 NSCLC) was > 100 µM and the TGI (XF 498 CNS) was > 100 µM. For the same compound, the TGI (OVCAR-8 ovarian) was > 100 µM, the TGI (SR leukemia) was > 100 µM and the TGI (COLO 205 colon) was > 100 µM. For the same compound, the TGI (M14 melanoma) was > 100 µM, the TGI (EKVX NSCLC) was > 100 µM and the TGI (SNB-78 CNS) was > 100 µM. The TGI (UACC-62 melanoma) was > 100 µM, the TGI (U251 CNS) was > 100 µM and the TGI (ACHN renal) was > 100 µM. For the same compound, the TGI (K-562 leukemia) was > 100 µM, the TGI (DMS 273 small cell lung) was > 100 µM and the TGI (HOP-62 NSCLC) was > 100 µM. The TGI (UO-31 renal) was > 100 µM, the TGI (IGROV1 ovarian) was > 100 µM and the TGI (KM20L2 colon) was > 100 µM. For the same compound, the TGI (HCT-116 colon) was > 100 µM, the TGI (SF-295 CNS) was > 100 µM and the TGI (SK-MEL-28 melanoma) was > 100 µM. The TGI (HCT-15 colon) was > 100 µM and the TGI (A498 renal) was > 100 µM.
With `Cc1cc([N+](=O)[O-])ccc1Sc1c2ccccc2nc2ccccc12` the TGI (SNB-19 CNS) was > 100 µM, the TGI (SN12C renal) was 93.3 µM and the TGI (SK-MEL-2 melanoma) was 55.9 µM. For the same compound, the TGI (A549 NSCLC) was > 100 µM, the TGI (CAKI-1 renal) was 97.3 µM and the TGI (SW-620 colon) was > 100 µM. The TGI (SK-MEL-5 melanoma) was > 100 µM, the TGI (SK-OV-3 ovarian) was > 100 µM and the TGI (HOP-92 NSCLC) was 98.2 µM. The TGI (HL-60(TB) leukemia) was 49.1 µM, the TGI (NCI-H460 lung) was > 100 µM and the TGI (NCI-H23 lung) was 79.2 µM. It also gave a TGI (NCI-H522 lung) of 38.9 µM, a TGI (UACC-257 melanoma) of 71.3 µM and a TGI (CCRF-CEM leukemia) of 79.5 µM. The TGI (OVCAR-3 ovarian) was > 100 µM, the TGI (RXF 393 renal) was > 100 µM and the TGI (OVCAR-4 ovarian) was > 100 µM. The TGI (KM12 colon) was 32.7 µM, the TGI (SNB-75 CNS) was > 100 µM and the TGI (HCC-2998 colon) was 56.1 µM. The TGI (OVCAR-5 ovarian) was > 100 µM, the TGI (SF-268 CNS) was > 100 µM and the TGI (MALME-3M melanoma) was > 100 µM. The TGI (NCI-H226 lung) was > 100 µM, the TGI (SF-539 CNS) was 56.5 µM and the TGI (HOP-18 NSCLC) was > 100 µM. For the same compound, the TGI (LOX IMVI melanoma) was 38.6 µM, the TGI (MOLT-4 leukemia) was 73.1 µM and the TGI (786-0 renal) was 55.5 µM. For the same compound, the TGI (DLD-1 colon) was > 100 µM, the TGI (TK-10 renal) was > 100 µM and the TGI (LXFL 529 NSCLC) was 45.5 µM. The TGI (XF 498 CNS) was 50 µM, the TGI (OVCAR-8 ovarian) was 84.4 µM and the TGI (SR leukemia) was 70.1 µM. For the same compound, the TGI (COLO 205 colon) was > 100 µM, the TGI (M14 melanoma) was > 100 µM and the TGI (EKVX NSCLC) was > 100 µM. The TGI (UACC-62 melanoma) was 66.8 µM, the TGI (U251 CNS) was 78.9 µM and the TGI (ACHN renal) was > 100 µM. For the same compound, the TGI (K-562 leukemia) was > 100 µM, the TGI (DMS 273 small cell lung) was > 100 µM and the TGI (HOP-62 NSCLC) was > 100 µM. The TGI (UO-31 renal) was > 100 µM, the TGI (IGROV1 ovarian) was > 100 µM and the TGI (KM20L2 colon) was 89.8 µM. The TGI (HCT-116 colon) was 66.6 µM, the TGI (SF-295 CNS) was > 100 µM and the TGI (SK-MEL-28 melanoma) was > 100 µM. The TGI (HCT-15 colon) was 57.2 µM and the TGI (A498 renal) was > 100 µM.
